According to patent US20100261711A1, “SELECTIVE ANTICONVULSANT AGENTS AND THEIR USES” (WiSys Technology Foundation, priority 2009, published 2010):
Values joined by “and” are separate entries in the source; they are usually repeats but may differ in a detail not shown here. Equal values may be shown once.

Assays:
[1] = Plasma levels by LC-MS/MS (tolerance study); format: in vivo, Sprague Dawley rats
Procedure: Immediately after testing, blood was collected via cardiac puncture. Samples were spun down, plasma was collected and acetonitrile added. Samples were frozen at −80° C. and shipped to a commercial laboratory (Enthalpy) for analysis.
Group 3 (8 subjects) was dosed with vehicle only.

[2] = molecular target: T1, GABAA/α2 (α2β3γ2 GABAA receptors) (Homo sapiens, UniProt P18507+P47869); assay: Competitive binding assay, [3H]flunitrazepam; details: Binding Affinity at GABAA/α2, αxβ3γ2, [3H]flunitrazepam competition
T1 construct: expressed in transfected cells
Procedure: (§1) The GABAA subunit selectivity of several compounds prepared as described above were determined using competitive binding assays. […] Membranes were harvested with a Brandel cell harvester followed by three ice-cold washes onto polyethyleneimine-pretreated (0.3%) Whatman GF/C filters. Filters were dried overnight and then soaked in Ecoscint, a liquid scintillation cocktail (National Diagnostics; Atlanta, Ga.). Bound radioactivity was quantified by liquid scintillation counting. Membrane protein concentrations were determined using an assay kit from Bio-Rad (Hercules, Calif.) with bovine serum albumin as the standard.

[3] = molecular target: T2, GABAA/α5 (α5β3γ2 GABAA receptors) (Homo sapiens, UniProt P18507+P31644); assay: Competitive binding assay, [3H]flunitrazepam; details: Binding Affinity at GABAA/α5, αxβ3γ2, [3H]flunitrazepam competition
T2 construct: expressed in transfected cells
Procedure: as §1

[4] = molecular target: T3, GABAA/α1 (α1β3γ2 GABAA receptors) (Homo sapiens, UniProt P14867+P18507); assay: Competitive binding assay, [3H]flunitrazepam; details: Binding Affinity at GABAA/α1, αxβ3γ2, [3H]flunitrazepam competition
T3 construct: expressed in transfected cells
Procedure: as §1

[5] = molecular target: T4, GABAA/α6 (α6β3γ2 GABAA receptors) (Homo sapiens, UniProt P18507+Q16445); assay: Competitive binding assay, [3H]flunitrazepam
T4 construct: expressed in transfected cells
Procedure: as §1

[6] = test system: minimal muscular or neurological impairment; assay: Toxicity (TOX), rotorod procedure, mice; format: in vivo
Procedure: (§2) The benzodiazepine derivative compounds selective for GABAa receptor subunits were tested for the ability to suppress seizures in several standard rat and mouse models of epilepsy. […] The standard models incorporated into anticonvulsant screening include the maximal electroshock test (MES), the subcutaneous Metrazol test (scMet), and evaluations of toxicity (TOX). The data for each condition is presented as a ratio of either the number of animals protected or toxic (loss of locomotor activity) over the number of animals tested at a given time point and dose.
(§3) To assess a compound's undesirable side effects (toxicity), animals are monitored for overt signs of impaired neurological or muscular function. […] When a mouse is placed on a rod that rotates at a speed of 6 rpm, the animal can maintain its equilibrium for long periods of time. The animal is considered toxic if it falls off this rotating rod three times during a 1-min period. In rats, minimal motor deficit is indicated by ataxia, which is manifested by an abnormal, uncoordinated gait. Rats used for evaluating toxicity are examined before the test drug is administered, since individual animals may have peculiarities in gait, equilibrium, placing response, etc., which might be attributed erroneously to the test substance.

[7] = test system: minimal motor deficit (ataxia, abnormal gait); assay: Toxicity (TOX), minimal motor deficit, rats; format: in vivo; details: for Tox, animals toxic/tested: Rat PO, 50 mg/kg; for TOX (Rotorod Test), animals toxic/tested: Rat IP, 100 mg/kg
Procedure: as §2, §3

MES-induced seizures [8] = assay: Maximal electroshock test (MES), rats; format: in vivo; details: Rat PO, 50 mg/kg
Procedure: as §2
(§4) The MES is a model for generalized tonic-clonic seizures and provides an indication of a compound's ability to prevent seizure spread when all neuronal circuits in the brain are maximally active. These seizures are highly reproducible and are electrophysiologically consistent with human seizures. For all tests based on MES convulsions, 60 Hz of alternating current (50 mA in mice, 150 in rats) is delivered for by corneal electrodes which have been primed with an electrolyte solution containing an anesthetic agent (0.5% tetracaine HCL). For Test 1, mice are tested at various intervals following doses of 30, 100 and 300 mg/kg of test compound given by ip injection of a volume of 0.01 mL/g. In Test 2, rats are tested after a dose of 30 mg/kg (po) in a volume of 0.04 mL/g. Test 8 uses varying doses administered via i.p. injection, again in a volume of 0.04 ml/g. […] In Antiepileptic Drugs, Levy, R. H. M., Meldrum, B. S., Eds.; Raven Press: New York, pp 99-110, 1995b.).

[9] = test system: Metrazol-induced clonic seizures; assay: Subcutaneous Metrazol test (scMet), rats; format: in vivo
Procedure: as §2
(§5) Subcutaneous injection of the convulsant Metrazol produces clonic seizures in laboratory animals. […] Animals are pretreated with various doses of the test compound (in a similar manner to the MES test, although a dose of 50 mg/kg (po) is the standard for Test 2 scMet). At the previously determined TPE of the test compound, the dose of Metrazol which will induce convulsions in 97% of animals (CD97: 85 mg/kg mice) is injected into a loose fold of skin in the midline of the neck. […] An episode of clonic spasms, approximately 3-5 seconds, of the fore and/or hindlimbs, jaws, or vibrissae is taken as the endpoint.

MES-induced seizures [10] = assay: Maximal electroshock test (MES), mice; format: in vivo; details: Mice IP
Procedure: as §2, §4

[11] = test system: Metrazol-induced clonic seizures; assay: Subcutaneous Metrazol test (scMet), mice; format: in vivo
Procedure: as §2, §5

6 Hz psychomotor seizure = assay: Minimal clonic seizure (6 Hz) test; format: in vivo; details: Mice IP, 44 mA, 0.5 Hr
Source text: Like the maximal electroshock (MES) test, the minimal clonic seizure (6 Hz) test is used to assess a compound's efficacy against electrically-induced seizures but uses a lower frequency (6 Hz) and longer duration of stimulation (3 s). Test compounds are pre-administered to mice via ip injection. […] Untreated mice will display seizures characterized by a minimal clonic phase followed by stereotyped, automatistic behaviors described originally as being similar to the aura of human subjects with partial seizures. Animals not displaying this behavior are considered protected (Table 10).

[12] = Mice, 50 mg/kg PO (Mice IP), 0.5 hr
[13] = Mice, 50 mg/kg PO (Mice IP), 4.0 hr

C#Cc1ccc2c(c1)C(c1ccccn1)=NCc1c(C(=O)O)ncn1-2 [HZ-166 acid]
HZ-166 acid, plasma average with outliers excluded ([1]; Group 1 (five days dosing of HZ-166)): 9.03 nmol/mL | Conc HZ-166 acid in plasma, individual subjects ([1]; Group 1: HZ-166 35.5 mg/kg ip for five days, blood after test on day 5): 2910 ng/mL and 2570 ng/mL and 3430 ng/mL and 2830 ng/mL and BLQ < (1.00) ng/mL and 3780 ng/mL and 3310 ng/mL and 1900 ng/mL | HZ-166 acid, plasma average with outliers excluded ([1]; Group 2 (HZ-166 on day 5 only)): 8.72 nmol/mL | Conc HZ-166 acid in plasma, individual subjects ([1]; Group 2: HZ-166 35.5 mg/kg ip on day 5 only): 3270 ng/mL and 2180 ng/mL and 167 ng/mL and 3120 ng/mL and 3100 ng/mL and 3690 ng/mL and 2590 ng/mL and 2080 ng/mL

O=C(OCC(F)(F)F)c1ncn2c1CN=C(c1ccccc1F)c1cc(Br)ccc1-2 [JYI-49, Trifluoroethyl-8-bromo-6-(2′-fluorophenyl)-4H-benzo[f]imidazo[1,5-a][1,4]diazepine-3-carboxylate]
Ki [2]: 2.38 nM | Ki [3]: 6.7 nM | Ki [4]: 1.87 nM | Ki [5]: 3390 nM

C#Cc1ccc2c(c1)C(c1ccccc1)=N[C@@H](C)c1nnc(C)n1-2 [SH-TS-CH3 (143), (4S)-8-Ethynyl-1,4-dimethyl-6-phenyl-4H-benzo[f][1,2,4]triazolo[4,3-a][1,4]diazepine]
TOX (Rotorod Test), animals toxic/tested ([6]; Mice IP, 3 mg/kg, 0.5 Hr): 0/8 | TOX (Rotorod Test), animals toxic/tested ([6]; Mice IP, 10 mg/kg, 0.5 Hr): 5/8^14 | TOX (Rotorod Test), animals toxic/tested ([6]; Mice IP, 30 mg/kg, 0.5 Hr): 4/4^14 | TOX (Rotorod Test), animals toxic/tested ([6]; Mice IP, 30 mg/kg, 4.0 Hr): 0/2 | TOX (Rotorod Test), animals toxic/tested ([6]; Mice IP, 100 mg/kg, 0.5 hr): 8/8^14 | TOX (Rotorod Test), animals toxic/tested ([6]; Mice IP, 100 mg/kg, 4.0 hr): 0/4 | TOX (Rotorod Test), animals toxic/tested ([6]; Mice IP, 300 mg/kg, 0.5 Hr): 4/4^13 | TOX (Rotorod Test), animals toxic/tested ([6]; Mice IP, 300 mg/kg, 4.0 Hr): 2/2^14 | Tox, animals toxic/tested ([7]; 0.5 h): 0/4 | Tox, animals toxic/tested ([7]; 1.0 h): 0/4 | Tox, animals toxic/tested ([7]; 2.0 h): 0/4 | Tox, animals toxic/tested ([7]; 4.0 h): 0/4 | Tox, animals toxic/tested ([7]; […]): 0/4 | MES, animals protected/tested (MES-induced seizures [8]; 0.5 h): 0/4 | MES, animals protected/tested (MES-induced seizures [8]; 1.0 h): 0/4 | MES, animals protected/tested (MES-induced seizures [8]; 2.0 h): 0/4 | MES, animals protected/tested (MES-induced seizures [8]; 4.0 h): 0/4 | MES, animals protected/tested (MES-induced seizures [8]; […]): 0/4 | scMet, animals protected/tested ([9]; Rat PO, 50 mg/kg, 0.5 h): 1/4 | scMet, animals protected/tested ([9]; Rat PO, 50 mg/kg, 1.0 h): 0/4^5 | scMet, animals protected/tested ([9]; Rat PO, 50 mg/kg, 2.0 h): 2/4^25 | scMet, animals protected/tested ([9]; Rat PO, 50 mg/kg, 4.0 h): 0/4^5 | scMet, animals protected/tested ([9]; Rat PO, 50 mg/kg, […]): 0/4^5 | Ki [2]: 50.1 nM | Ki [3]: 8.1 nM | Ki [4]: 107 nM | MES, animals protected/tested (MES-induced seizures [10]; 3 mg/kg, 0.5 Hr): 0/4 | MES, animals protected/tested (MES-induced seizures [10]; 10 mg/kg, 0.5 Hr): 0/4 | MES, animals protected/tested (MES-induced seizures [10]; 30 mg/kg, 0.5 Hr): 1/1 | MES, animals protected/tested (MES-induced seizures [10]; 30 mg/kg, 4.0 Hr): 0/1 | MES, animals protected/tested (MES-induced seizures [10]; 100 mg/kg, 0.5 hr): 3/3 | MES, animals protected/tested (MES-induced seizures [10]; 100 mg/kg, 4.0 hr): 0/3 | MES, animals protected/tested (MES-induced seizures [10]; 300 mg/kg, 0.5 Hr): 1/1 | MES, animals protected/tested (MES-induced seizures [10]; 300 mg/kg, 4.0 Hr): 1/1 | scMet, animals protected/tested ([11]; Mice IP, 3 mg/kg, 0.5 Hr): 2/4 | scMet, animals protected/tested ([11]; Mice IP, 10 mg/kg, 0.5 Hr): 4/4 | scMet, animals protected/tested ([11]; Mice IP, 30 mg/kg, 0.5 Hr): 1/1 | scMet, animals protected/tested ([11]; Mice IP, 30 mg/kg, 4.0 Hr): 0/1 | scMet, animals protected/tested ([11]; Mice IP, 100 mg/kg, 0.5 hr): 1/1 | scMet, animals protected/tested ([11]; Mice IP, 100 mg/kg, 4.0 hr): 1/1 | scMet, animals protected/tested ([11]; Mice IP, 300 mg/kg, 0.5 Hr): 1/1 | scMet, animals protected/tested ([11]; Mice IP, 300 mg/kg, 4.0 Hr): 1/1 | 6 Hz ED50 Biological Response, protected/tested (6 Hz psychomotor seizure; 3 mg/kg): 4/8 | 6 Hz ED50 Biological Response, protected/tested (6 Hz psychomotor seizure; 6 mg/kg): 5/8 | 6 Hz ED50 Biological Response, protected/tested (6 Hz psychomotor seizure; 10 mg/kg): 8/8 | ED50 (6 Hz psychomotor seizure; Mus musculus, ip, 0.5 h, read-out: ED50 (6 Hz)): 3.98 mg/kg

C#Cc1ccc2c(c1)C(c1ccccc1)=NCc1c(C(=O)OCC)ncn1-2 [XHe-II-053 (7), Ethyl 8-acetylenyl-6-phenyl-4H-benzo[f]imidazo[1,5-a][1,4]diazepine-3-carboxylate]
TOX (Rotorod Test), animals toxic/tested ([6]; Mice IP, 100 mg/kg, 0.5 hr): 0/8 | TOX (Rotorod Test), animals toxic/tested ([6]; Mice IP, 100 mg/kg, 4.0 hr): 0/4 | TOX (Rotorod Test), animals toxic/tested [6, 12]: 2/4 | TOX (Rotorod Test), animals toxic/tested [6, 13]: 0/4 | TOX (Rotorod Test), animals toxic/tested ([7]; 0.5 hr): 2/4 | TOX (Rotorod Test), animals toxic/tested ([7]; 4.0 hr): 0/4 | scMet, animals protected/tested ([9]; Rat IP, 100 mg/kg, 0.5 hr): 1/4 | scMet, animals protected/tested ([9]; Rat IP, 100 mg/kg, 4.0 hr): 0/4 | MES, animals protected/tested (MES-induced seizures [10]; 100 mg/kg, 0.5 hr): 0/3 | MES, animals protected/tested (MES-induced seizures [10]; 100 mg/kg, 4.0 hr): 0/3 | scMet, animals protected/tested ([11]; Mice IP, 100 mg/kg, 0.5 hr): 0/1 | scMet, animals protected/tested ([11]; Mice IP, 100 mg/kg, 4.0 hr): 0/1 | scMet, animals protected/tested [11, 12]: 1/4 | scMet, animals protected/tested [11, 13]: 0/4
